Source: ChEMBL document CHEMBL1130643, “Synthesis of benzanilide derivatives as dual acting agents with alpha 1-adrenoceptor antagonistic action and steroid 5-alpha reductase inhibitory activity” (Bioorg Med Chem Lett, 1998)

Key:
[1] = target: T1, Steroid 5-alpha-reductase (Rattus norvegicus, UniProt P24008+P31214); assay: Inhibitory activity against prostatic 5-alpha reductase in Sprague-Dawley rat; type: protein assay
T1 sequence (P24008 whole entry): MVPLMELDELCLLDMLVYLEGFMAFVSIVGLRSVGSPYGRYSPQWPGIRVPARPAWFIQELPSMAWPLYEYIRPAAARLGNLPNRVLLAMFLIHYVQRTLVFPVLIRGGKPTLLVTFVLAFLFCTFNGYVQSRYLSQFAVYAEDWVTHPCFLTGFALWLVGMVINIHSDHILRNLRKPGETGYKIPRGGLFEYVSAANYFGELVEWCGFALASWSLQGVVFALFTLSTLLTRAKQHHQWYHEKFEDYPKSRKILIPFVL
T1 sequence (P31214 whole entry): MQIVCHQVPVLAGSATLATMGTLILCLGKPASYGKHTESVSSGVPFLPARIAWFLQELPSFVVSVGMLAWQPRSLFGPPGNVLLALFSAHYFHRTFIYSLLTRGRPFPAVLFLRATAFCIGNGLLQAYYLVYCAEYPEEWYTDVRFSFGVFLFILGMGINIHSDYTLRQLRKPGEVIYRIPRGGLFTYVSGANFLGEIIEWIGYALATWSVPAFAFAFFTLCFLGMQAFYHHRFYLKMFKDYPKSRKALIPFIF

[2] = target: Adrenergic receptor alpha-1 (Oryctolagus cuniculus); assay: Inhibition of phenylephrine-induced contractions in white rabbit prostate.

SMILES | IC50 [1] [nM] | pA2 [2]
COc1ccccc1N1CCN(CCCOc2ccc(C(=O)Nc3ccccc3OCCCC(=O)O)cc2)CC1 | 41000 | 7
COc1ccccc1NC(=O)c1ccc(OCCCN2CCN(c3ccccc3OC)CC2)cc1 |  | 7.1
COc1ccccc1N1CCN(CCC(Oc2ccc(NC(=O)c3ccccc3OCCCC(=O)O)cc2)c2ccc(C)cc2)CC1 (stereo not given) | 440 | 7.1
COc1ccccc1N1CCN(CCC(Oc2ccc(NC(=O)c3ccccc3OCCCC(=O)O)cc2)c2ccccc2)CC1 (stereo not given) | 730 | 7.1
COc1ccccc1N1CCN(CCCCCCOc2ccc(C(=O)Nc3ccccc3OCCCC(=O)O)cc2)CC1 | 9500 | 7
COc1ccccc1N1CCN(CCOc2ccc(C(=O)Nc3ccccc3OCCCC(=O)O)cc2)CC1 | 29000 | 6.6
COc1ccccc1N1CCN(CCC(Oc2ccc(C(=O)Nc3ccccc3OCCCC(=O)O)cc2)c2ccc(Br)cc2)CC1 (stereo not given) | 210 | 7
COc1ccc(C(CCN2CCN(c3ccccc3OC)CC2)Oc2ccc(C(=O)Nc3ccccc3OCCCC(=O)O)cc2)cc1 (stereo not given) | 170 | 6.7
COc1ccccc1N1CCN(CCCCC(Oc2ccc(C(=O)Nc3ccccc3OCCCC(=O)O)cc2)c2ccccc2)CC1 (stereo not given) | 910 | 6.6
COc1ccccc1N1CCN(CCCC(Oc2ccc(C(=O)Nc3ccccc3OCCCC(=O)O)cc2)c2ccccc2)CC1 (stereo not given) | 750 | 6.5
COc1ccccc1N1CCN(CCCCOc2ccc(C(=O)Nc3ccccc3OCCCC(=O)O)cc2)CC1 | 43000 | 7.1
COc1ccccc1N1CCN(CCC(Oc2ccc(NC(=O)c3ccccc3OCCCC(=O)O)cc2)c2ccc(CC(C)C)cc2)CC1 (stereo not given) | 96 | 5.2
COc1ccccc1N1CCN(CCC(Oc2ccc(C(=O)Nc3ccccc3OCCCC(=O)O)cc2)c2ccc(CC(C)C)cc2)CC1 (stereo not given) | 39 | 5.7
COc1ccccc1N1CCN(CCC(Oc2ccc(C(=O)Nc3ccccc3OCCCC(=O)O)cc2)c2ccccc2)CC1 (stereo not given) | 1000 | 7.6
COc1ccccc1N1CCN(CCC(Oc2ccc(C(=O)Nc3ccccc3OCCCC(=O)O)cc2)c2ccc(C)cc2)CC1 (stereo not given) | 67 | 7.8
CCc1ccc(C(CCN2CCN(c3ccccc3OC)CC2)Oc2ccc(C(=O)Nc3ccccc3OCCCC(=O)O)cc2)cc1 (stereo not given) | 70 | 7.4
CCc1ccc(C(CCN2CCN(c3ccccc3OC)CC2)Oc2ccc(NC(=O)c3ccccc3OCCCC(=O)O)cc2)cc1 (stereo not given) | 130 | 6.7
COc1ccccc1N1CCN(CCC(Oc2ccc(C(=O)Nc3ccccc3OCCCC(=O)O)cc2)c2cccc(C)c2)CC1 (stereo not given) | 360 | 6.6
